Each structure is given as a SMILES string. “Also recorded” adds a separate entry of the source.

This is an account of results in patent publication US20230364032A1, “USE OF 2-HOBA TO TREAT ATHEROSCLEROSIS” (Vanderbilt University, priority 2020, published 2023).

Data set [1] in a line: 2-HOBA and 4-HOBA levels in plasma and tissues of C57BL/6J mice after intraperitoneal injection (LC/MS). The class given is in vivo, mouse. The following applies: for liver, spleen, and kidney levels of 2-HOBA versus 4-HOBA: 30 min after intraperitoneal injection. As to the method:
FIG. 12A-12D show the levels of 2-HOBA or 4-HOBA in plasma and tissues from C57BL/6J mice. A. Plasma samples were collected from female C57BL/6J mice on a chow diet after intraperitoneal injection of 1 mg 2-HOBA (n=3) or 1 mg 4-HOBA (n=3). *p<0.01, Student t test. B-D. Levels of 2-HOBA and 4-HOBA in liver (B), spleen (C), and kidney (D) of WT mice 30 min after intraperitoneal injection. (Mean±SEM shown for each, N.S. Student t test). The levels of 2-HOBA or 4-HOBA were measured in the plasma and tissues using LC/MS as described in the Methods.
Measurement of 2-HOBA and 4-HOBA was performed by LC/MS after derivatization with phenylisothiocyanate (PITC), and using [^2H4]-2-HOBA as an internal standard as previously described for 2-HOBA^71 (See FIG. 23). For these assays, the Waters Xevo-TQ-Smicro triple quadrupole mass spectrometer operating in positive ion multiple reaction monitoring (MRM) mode monitored the following transitions: for PITC-2-HOBA or PITC-4-HOBA, m/z 259→107@20 eV (quantifier transition) and m/z 259→153 @20 eV (qualifier transition); for PITC-[^2H4]2-HOBA m/z 263 →107@20 eV (quantifier transition), m/z 263→111 @20 eV (qualifier transition). Abundance for PITC-2-HOBA was calculated based on the ratio of peak area versus that of PITC-[^2H4]2-HOBA. Because the transition reactions for PITC-4-HOBA are less efficient than for PITC-2-HOBA, the ratio of peak areas for PITC-4-HOBA/PITC-[^2l H4]2-HOBA was multiplied by the correction factors 3.9 and 5.7 when using the m/z 107 and m/z 153 transition, respectively (See FIG. 24).

A further data set deals with MDA. Put plainly: HOBA-MDA adducts in macrophages incubated with ox-LDL (LC-MS/MS). Particulars: 24 h; for HOBA-MDA (propenal-HOBA) adducts in macrophages: macrophages treated with oxidized LDL, 2-HOBA versus 4-HOBA. The class given is cell-based, mouse. As to the method:
Peritoneal macrophages were isolated from C57BL/6J mice and incubated with 50 μg/mL ox-LDL, and treated with either 250 μm 2-HOBA or 4-HOBA (18A), or 5 μm of 2-HOBA or 4-HOBA (18B, 18C, 18D) for 24 h. Cell samples were collected and the HOBA-MDA adducts were measured using LC-MS/MS as described in supplemental methods. * p<0.05, One-way ANOVA with Bonferroni's post hoc test.
The scavenger-MDA adducts were extracted, (1) from homogenate of tissue (equivalent of 30 mg) or (2) from cells (1 ml), three times with 500 μl of ethyl acetate. The extract was dried down, resuspended in 100 μl of ACN-water (1:1, v/v with 0.1% formic acid), vortexed, and filtered through a 0.22 μm spin X column. The reactions were analyzed by LC-EST/MS/MS using the column a Phenomenex Kinetex column at a flow rate of 0.1 ml/min. The gradient consisted of Solvent A, water with 0.2% formic acid and solvent B, acetonitrile with 0.2% formic acid. The gradient was as follows: 0-2 min 99.9% A, 2-9 min 99.9-0.1% A, 9-12 min 99.9% B. The mass spectrometer was operated in the positive ion mode, and the spray voltage was maintained at 5,000 V. Nitrogen was used for the sheath gas and auxiliary gas at pressures of 30 and 5 arbitrary units, respectively. The optimized skimmer offset was set at 10, capillary temperature was 300° C., and the tube lens voltage was specific for each compound. SRM of specific transition ions for the precursor ions at m/z 178→107 (propenal-HOBA adduct).

Another data set concerns Phospho-Akt (S473). As to the kind of experiment: Akt signaling in macrophages (phospho-Akt Western blot). The class given is cell-based, mouse. The following applies: 250 μM, 1 hour; absence and presence of insulin; vehicle, 4-HOBA, 2-HOBA compared. On the procedure:
WT macrophages were treated with or without vehicle (water), 250 μM 4-HOBA or 2-HOBA for 1 hour, and then incubated with or without 100 nM insulin as indicated for 15 min. Phospho-Akt (S473) and GAPDH were detected by Western Blotting (19A). The band density was quantitated by ImageJ software (19B). Two independent experiments were performed.

Take `NCc1ccccc1O` [2-HOBA, 2-hydroxybenzylamine]: the “liver, spleen, and kidney levels of 2-HOBA versus 4-HOBA” value in data set [1] is “not significantly different”. The “propenal-2-HOBA, DHP-MDA-2-HOBA and crosslinked MDA-2-HOBA adducts in cells” value in the data set with MDA (cells incubated with 5 μM, ox-LDL) is recorded as “significant levels of propenal-2-HOBA were formed”. In the data set with MDA, the “HOBA-MDA (propenal-HOBA) adducts in macrophages” value is “increased; also recorded: readily detected; also recorded: formation of 2-HOBA-MDA adducts”. In addition, the “pAKT levels in macrophages” value in the data set on Phospho-Akt (S473) was “no difference; also recorded: does not influence”.

Turning to `NCc1ccc(O)cc1` [4-HOBA, 4-hydroxybenzylamine, reference compound], in data set [1], the “liver, spleen, and kidney levels of 2-HOBA versus 4-HOBA” value is “not significantly different”. The “clearance, 4-HOBA vs 2-HOBA” value in data set [1] (after intraperitoneal injection) was “more rapid clearance; also recorded: cleared more rapidly”. For the same molecule, in data set [1] (female C57BL/6J mice, 1 mg i.p.), the “plasma levels after intraperitoneal injection, 4-HOBA vs 2-HOBA” value was “slightly higher initially”. Also, the “HOBA-MDA (propenal-HOBA) adducts in macrophages” value in the data set with MDA is listed as “undetectable”. The “pAKT levels in macrophages” value in the data set with Phospho-Akt (S473) is reported as “no difference”.
